Experimental data taken from ChEMBL document CHEMBL2074007, “Characterization of the transport of nucleoside analog drugs by the human multidrug resistance proteins MRP4 and MRP5” (Mol Pharmacol, 2003).

Key:
[1] = target: MRP5 (ABCC5) (Homo sapiens, UniProt O15440); test: TP_TRANSPORTER: inhibition of alaninyl-d4TMP uptake (alaninyl-d4TMP: 1 uM, Zaprinast: 100uM) in MRP5-expressing HEK293 cells; type: functional, cell-based; parameters: scale not given: the % may be the effect or the level left; settings: probe alaninyl-d4TMP (1 uM), read-out: Activity
Chain of MRP5 (ABCC5) (O15440 whole entry): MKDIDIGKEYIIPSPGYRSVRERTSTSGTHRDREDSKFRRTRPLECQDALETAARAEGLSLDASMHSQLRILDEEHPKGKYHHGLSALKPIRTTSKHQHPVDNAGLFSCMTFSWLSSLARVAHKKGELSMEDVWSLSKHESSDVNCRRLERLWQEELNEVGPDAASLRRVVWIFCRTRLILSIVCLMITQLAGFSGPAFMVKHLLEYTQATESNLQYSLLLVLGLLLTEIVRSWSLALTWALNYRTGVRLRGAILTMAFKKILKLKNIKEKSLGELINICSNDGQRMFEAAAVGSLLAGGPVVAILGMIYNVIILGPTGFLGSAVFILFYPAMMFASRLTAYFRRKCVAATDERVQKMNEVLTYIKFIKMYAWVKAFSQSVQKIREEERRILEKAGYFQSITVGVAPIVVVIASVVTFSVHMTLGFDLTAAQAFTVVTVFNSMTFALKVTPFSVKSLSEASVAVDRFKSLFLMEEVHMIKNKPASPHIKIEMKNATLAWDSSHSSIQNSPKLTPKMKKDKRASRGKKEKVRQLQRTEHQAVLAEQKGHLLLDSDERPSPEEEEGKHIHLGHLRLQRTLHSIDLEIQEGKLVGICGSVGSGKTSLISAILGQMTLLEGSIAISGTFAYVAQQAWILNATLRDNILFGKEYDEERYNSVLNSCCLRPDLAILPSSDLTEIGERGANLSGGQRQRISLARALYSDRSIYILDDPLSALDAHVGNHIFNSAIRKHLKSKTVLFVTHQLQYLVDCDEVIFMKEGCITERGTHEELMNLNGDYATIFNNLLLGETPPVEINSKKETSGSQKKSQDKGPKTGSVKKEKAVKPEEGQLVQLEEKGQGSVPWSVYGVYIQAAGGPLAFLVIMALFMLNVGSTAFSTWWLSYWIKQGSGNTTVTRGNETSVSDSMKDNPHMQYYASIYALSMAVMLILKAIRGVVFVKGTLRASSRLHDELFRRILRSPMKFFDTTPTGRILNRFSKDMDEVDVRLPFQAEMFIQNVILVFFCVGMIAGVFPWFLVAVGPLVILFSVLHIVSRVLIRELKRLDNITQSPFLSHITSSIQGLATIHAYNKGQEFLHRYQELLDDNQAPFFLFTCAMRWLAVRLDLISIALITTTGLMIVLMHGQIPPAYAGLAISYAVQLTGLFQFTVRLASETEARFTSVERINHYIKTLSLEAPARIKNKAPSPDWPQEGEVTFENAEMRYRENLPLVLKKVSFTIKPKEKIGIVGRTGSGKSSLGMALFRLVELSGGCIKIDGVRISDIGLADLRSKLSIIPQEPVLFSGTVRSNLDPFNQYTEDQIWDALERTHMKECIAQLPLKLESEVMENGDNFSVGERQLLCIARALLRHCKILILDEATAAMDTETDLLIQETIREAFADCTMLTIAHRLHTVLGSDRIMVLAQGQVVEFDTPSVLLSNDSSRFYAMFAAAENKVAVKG

[2] = target: T1, MRP4 (ABCC4) (Homo sapiens, UniProt O15439); test: TP_TRANSPORTER: inhibition of E217betaG uptake (E217betaG: 30 uM, Zaprinast: 100uM) in MRP4-expressing HEK293 cells; type: functional, cell-based; parameters: scale not given: the % may be the effect or the level left; settings: probe E217betaG (30 uM), read-out: Activity
T1 sequence (O15439 whole entry): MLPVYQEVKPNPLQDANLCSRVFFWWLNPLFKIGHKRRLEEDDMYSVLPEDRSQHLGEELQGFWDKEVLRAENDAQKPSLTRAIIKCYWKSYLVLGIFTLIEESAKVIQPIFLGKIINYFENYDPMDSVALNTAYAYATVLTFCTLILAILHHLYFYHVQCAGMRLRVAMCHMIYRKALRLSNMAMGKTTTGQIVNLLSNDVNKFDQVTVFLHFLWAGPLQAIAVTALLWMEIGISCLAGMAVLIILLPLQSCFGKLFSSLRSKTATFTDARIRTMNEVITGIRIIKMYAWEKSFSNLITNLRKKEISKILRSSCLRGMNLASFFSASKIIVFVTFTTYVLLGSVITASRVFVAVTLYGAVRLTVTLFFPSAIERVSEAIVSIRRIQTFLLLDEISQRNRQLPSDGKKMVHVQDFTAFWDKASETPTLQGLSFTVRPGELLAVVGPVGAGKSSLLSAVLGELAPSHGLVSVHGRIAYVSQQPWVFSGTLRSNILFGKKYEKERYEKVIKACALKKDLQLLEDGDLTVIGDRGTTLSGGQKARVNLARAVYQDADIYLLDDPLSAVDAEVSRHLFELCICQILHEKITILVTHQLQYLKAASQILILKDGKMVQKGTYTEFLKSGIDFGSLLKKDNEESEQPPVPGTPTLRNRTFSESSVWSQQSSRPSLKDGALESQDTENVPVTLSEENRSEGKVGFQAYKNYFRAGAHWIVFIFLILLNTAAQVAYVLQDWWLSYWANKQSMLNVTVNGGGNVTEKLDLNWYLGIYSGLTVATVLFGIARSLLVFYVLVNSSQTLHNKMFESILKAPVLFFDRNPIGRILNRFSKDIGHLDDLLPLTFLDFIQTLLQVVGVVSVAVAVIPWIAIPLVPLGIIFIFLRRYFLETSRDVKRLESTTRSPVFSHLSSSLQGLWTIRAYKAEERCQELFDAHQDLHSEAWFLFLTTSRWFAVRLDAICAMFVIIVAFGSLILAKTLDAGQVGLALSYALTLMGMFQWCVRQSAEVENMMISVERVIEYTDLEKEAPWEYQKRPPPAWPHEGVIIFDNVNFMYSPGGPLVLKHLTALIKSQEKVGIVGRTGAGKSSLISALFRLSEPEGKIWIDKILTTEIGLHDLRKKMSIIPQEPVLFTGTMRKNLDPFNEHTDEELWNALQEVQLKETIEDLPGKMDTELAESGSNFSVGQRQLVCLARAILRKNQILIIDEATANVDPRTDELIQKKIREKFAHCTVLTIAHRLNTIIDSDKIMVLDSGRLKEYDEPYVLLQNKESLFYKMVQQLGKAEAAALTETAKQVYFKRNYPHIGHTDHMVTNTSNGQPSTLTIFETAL

[3] = target: T2, ATP-binding cassette sub-family C member 4 (Homo sapiens, UniProt O15439); type: functional, cell-based, HEK293
T2 sequence (O15439 whole entry): T1 sequence (O15439 whole entry)

[4] = target: ATP-binding cassette sub-family C member 5 (Homo sapiens, UniProt O15440); type: functional, cell-based, HEK293
Chain of ATP-binding cassette sub-family C member 5 (O15440 whole entry): as the sequence (O15440 whole entry) above

| activity at 100 µM [1] | activity at 100 µM [2] | IC50 [3] | IC50 [4] | Structure (SMILES) |
| --- | --- | --- | --- | --- |
| 37% | 48% |  |  | Nc1nc2c(ncn2[C@@H]2O[C@@H]3COP(=O)(O)O[C@H]3[C@H]2O)c(=O)[nH]1 |
|  |  | 20 µM | > 50 µM | COc1cc(C(=O)OCCCN2CCCN(CCCOC(=O)c3cc(OC)c(OC)c(OC)c3)CC2)cc(OC)c1OC [DILAZEP] |
|  |  |  | 40 µM | CN(C)C(=O)CCSC(SCCC(=O)O)c1cccc(/C=C/c2ccc3ccc(Cl)cc3n2)c1 (stereo not given) [MK-571] |
|  |  | 75 µM |  | O=[N+]([O-])c1ccc(CSc2ncnc3c2ncn3[C@@H]2O[C@H](CO)[C@@H](O)[C@H]2O)cc1 [NITROBENZYLMERCAPTOPURINE RIBONUCLEOSIDE] |
|  |  | 10 µM | 30 µM | COc1cc2c(cc1OC)-c1c/c(=N\c3c(C)cc(C)cc3C)n(C)c(=O)n1CC2 [TREQUINSIN] |
| 12% | 7% |  |  | CCCOc1ccccc1-c1nc2nn[nH]c2c(=O)[nH]1 [ZAPRINAST] |
